Patent US8158587B2, “Compound having histone deacetylase-inhibiting activity, and pharmaceutical composition comprising the compound as an active ingredient” (Kyushu Institute of Technology, priority 2006, dated 2012)

Key:
Test in all cases: Human cancer cell line panel, proliferation (sulforhodamine B)
Assay type in all cases: cell-based
[1] = system: ovarian cancer cell line SK-OV-3; details: SK-OV-3, 2 days of cultivation; read-out: 50% inhibitory concentration, proliferation
[2] = system: brain tumor cell line SF-268; details: SF-268, 2 days of cultivation; read-out: 50% inhibitory concentration, proliferation
[3] = system: brain tumor cell line SF-295; details: SF-295, 2 days of cultivation; read-out: 50% inhibitory concentration, proliferation

IC50 [1]: ≤ 100 nM | IC50 [2]: ≤ 100 nM | IC50 [3]: ≤ 100 nM
Compound: CC(=O)CSCCCCC[C@@H]1NC(=O)[C@H]2CCCN2C(=O)[C@H](Cc2ccccc2)NC(=O)C(C)(C)NC1=O [Ky-72, cyclo(-L-Am7(acetonyl)-Aib-L-Phe-D-Pro-)]
